Broadly, the MIC is the lowest concentration found to suppress growth. Read a low MIC as greater potency.

This note sets out measurements from ChEMBL document CHEMBL1275421, “Reduced Candida glabrata susceptibility secondary to an FKS1 mutation developed during candidemia treatment” (2008).

Converted amounts (≈) assume the structure as drawn. *1 amine or outer side, *2 acyl side, *3 side chain or, on linkers, in order; H or OH if unused. Where a SMILES comes first, the peptide text is derived from it. Bridges are numbered along the chain shown (N, C = ends). [ ]: non-standard residue; d: D form. The star is where a group is joined. hTyr(3S-OH,4S-OH,3'-OSO3H) = N[C@H](C(=O)O)[C@H](O)[C@@H](O)c1ccc(O)c(OS(=O)(=O)O)c1; pTerphenylCO(4''-OnC5H11) = CCCCCOc1ccc(-c2ccc(-c3ccc(C(=O)*)cc3)cc2)cc1; Orn(4R-OH,5R-OH) = O=C([C@H](C[C@@H](O)[C@@H](O)N[*:3])N[*:1])[*:2]; hTyr(3S-OH,4S-OH) = N[C@H](C(=O)O)[C@H](O)[C@@H](O)c1ccc(O)cc1; Pro(3S-OH,4S-Me) = C[C@H]1CN[C@H](C(=O)O)[C@H]1O; X1 = CCCCCOc1ccc(-c2cc(-c3ccc(C(=O)*)cc3)no2)cc1; Gln(3R-OH) = NC(=O)C[C@@H](O)[C@H](N)C(=O)O; Hyp = O=C(O)[C@@H]1C[C@@H](O)CN1

Common to all, as to type: functional
Assay [1] concerns Nakaseomyces glabratus. Description: Antifungal activity against Candida glabrata 06-3168 obtained from patient on compound therapy by M27-A2 method.
The test system of assay [2] is Nakaseomyces glabratus. The experiment in a line: Antifungal activity against Candida glabrata 06-3170 harboring […] T1896G and D632E mutant obtained from patient on compound therapy by M27-A2 method.
For assay [3], the system named is Nakaseomyces glabratus. Description: Antifungal activity against Candida glabrata 06-3169 harboring […] T1896G and D632E mutant obtained from patient on compound therapy by M27-A2 method.
The test system of another assay is Pichia kudriavzevii. The experiment in a line: Antifungal activity against Candida krusei obtained from patient with acute myeloid leukemia.

Regarding `C[C@@H]1[C@H](O)[C@@H](C)/C=C/C=C/C=C/C=C/C=C/C=C/C=C/[C@H](O[C@@H]2O[C@H](C)[C@@H](O)[C@H](N)[C@@H]2O)C[C@@H]2O[C@](O)(C[C@@H](O)C[C@@H](O)[C@H](O)CC[C@@H](O)C[C@@H](O)CC(=O)O[C@H]1C)C[C@H](O)[C@H]2C(=O)O` [AMPHOTERICIN B], the MIC against Nakaseomyces glabratus [1], against Nakaseomyces glabratus [2] and in the assay with Nakaseomyces glabratus [3] was 0.125 µg/mL (≈ 0.135 µM) throughout.

In the case of `OC(Cn1cncn1)(Cn1cncn1)c1ccc(F)cc1F` [FLUCONAZOLE], the MIC in the assay on Nakaseomyces glabratus [1], against Nakaseomyces glabratus [2] and against Nakaseomyces glabratus [3] was 1 µg/mL (≈ 3.27 µM) throughout.

As to `CCCCCOc1ccc(-c2cc(-c3ccc(C(=O)N[C@H]4C[C@@H](O)[C@@H](O)NC(=O)[C@@H]5[C@@H](O)[C@@H](C)CN5C(=O)[C@H]([C@H](O)CC(N)=O)NC(=O)[C@H]([C@H](O)[C@@H](O)c5ccc(O)c(OS(=O)(=O)O)c5)NC(=O)[C@@H]5C[C@@H](O)CN5C(=O)[C@H]([C@@H](C)O)NC4=O)cc3)no2)cc1` [MICAFUNGIN] (X1-[Orn(4R-OH,5R-OH)]T[Hyp][hTyr(3S-OH,4S-OH,3'-OSO3H)][Gln(3R-OH)][Pro(3S-OH,4S-Me)]; lactam 1-C), the MIC with Nakaseomyces glabratus [1] is 0.06 µg/mL (≈ 0.0472 µM); in the assay with Nakaseomyces glabratus [2], above 2 µg/mL; in the assay on Nakaseomyces glabratus [3] it was above 2 µg/mL.

As for `CCCCCOc1ccc(-c2ccc(-c3ccc(C(=O)N[C@H]4C[C@@H](O)[C@@H](O)NC(=O)[C@@H]5[C@@H](O)[C@@H](C)CN5C(=O)[C@H]([C@@H](C)O)NC(=O)[C@H]([C@H](O)[C@@H](O)c5ccc(O)cc5)NC(=O)[C@@H]5C[C@@H](O)CN5C(=O)[C@H]([C@@H](C)O)NC4=O)cc3)cc2)cc1` [ANIDULAFUNGIN] ({pTerphenylCO(4''-OnC5H11)}-[Orn(4R-OH,5R-OH)]T[Hyp][hTyr(3S-OH,4S-OH)]T[Pro(3S-OH,4S-Me)]; lactam 1-C), the results for the minimum inhibitory concentration (MIC) in the assay with Nakaseomyces glabratus [1], in the assay with Nakaseomyces glabratus [2] and with Nakaseomyces glabratus [3] were 0.03 µg/mL (≈ 0.0263 µM), above 2 µg/mL and above 2 µg/mL, respectively.

Consider `C[C@@H](c1ncncc1F)[C@](O)(Cn1cncn1)c1ccc(F)cc1F` [VORICONAZOLE], for which the MIC with Nakaseomyces glabratus [1], in the assay with Nakaseomyces glabratus [2] and against Nakaseomyces glabratus [3] was 0.03 µg/mL (≈ 0.0859 µM) in each case.

`CC[C@H](C)C[C@H](C)CCCCCCCCC(=O)N[C@H]1C[C@@H](O)[C@@H](NCCN)NC(=O)[C@@H]2[C@@H](O)CCN2C(=O)[C@H]([C@H](O)CCN)NC(=O)[C@H]([C@H](O)[C@@H](O)c2ccc(O)cc2)NC(=O)[C@@H]2C[C@@H](O)CN2C(=O)[C@H]([C@@H](C)O)NC1=O` [CASPOFUNGIN]: the minimum inhibitory concentration (MIC) was 0.06 µg/mL (≈ 0.0549 µM) in the assay on Nakaseomyces glabratus [1], 2 µg/mL (≈ 1.83 µM) with Pichia kudriavzevii, above 2 µg/mL with Nakaseomyces glabratus [2] and above 2 µg/mL in the assay on Nakaseomyces glabratus [3].
